Assay results from publication PMC10167348, “Structural mechanisms of TRPM7 activation and inhibition” (Nature Communications, 2023).
Substitutions are numbered along the chain they refer to. In names and notes the source's numbering stands.

Experiments:
TRPM7 WT = target: T1, TRPM7 WT (Mus musculus, UniProt Q923J1); assay: Aequorin-based Ca2+ influx assay, inhibition of TRPM7-mediated Ca2+ influx; format: cell-based; conditions: antagonist, mean ± SEM
T1 construct: expressed in transfected cells; host or cells: HEK 293T
Procedure: (§1) Measurements of [Ca^2+]i were performed as reported previously with several modifications[2],[52],[54]. HEK 293T cells (mycoplasma test negative, ATCC #CRL3216) were maintained at 37 °C and 5% CO2 in DMEM supplemented with 10% fetal calf serum, 100 µg/ml streptomycin and 100 U/ml penicillin (all from Thermo Fisher Scientific). Cells cultured in six-well plates (~60% confluence) were transfected with 2 µg/dish Trpm7 plasmid DNA and 0.1 µg/dish pG5A plasmid DNA encoding eGFP fused to Aequorea victoria aequorin, using Lipofectamine 2000 (Thermo Fisher Scientific). Twenty-four hours after transfection, the cells were washed with Mg^2+-free HEPES-buffered saline (Mg^2+-free HBS) containing 140 mM NaCl, 6 mM KCl, 0.5 mM CaCl2, 10 mM HEPES (pH 7.4) and 5 mM glucose, and mechanically resuspended in the Mg^2+-free HBS. For reconstitution of aequorin, cell suspensions were incubated with 5 µM coelenterazine (Biaffin GmbH) in the Mg^2+-free HBS for 30 min at room temperature. Cells were washed twice by centrifugation at 600 rpm for 5 min (Heraeus Pico 17 microcentrifuge, Thermo Fisher Scientific), resuspended in the Mg^2+-free HBS and aliquoted into 96-well plates (1 × 10^5 cells per well). Luminescence was detected at room temperature using a FLUOstar OPTIMA microplate reader (BMG LABTECH GmbH). To monitor the NS8593- and VER155008-induced inhibition of TRPM7-mediated Ca^2+ influx, the extracellular concentration of Ca^2+ was increased to 5 mM by injecting the CaCl2-containing Mg^2+-free HBS in the absence or presence of the inhibitors. […] To study activation by naltriben, TRPM7-transfected cells were exposed to Mg^2+-free HBS containing different concentrations of the agonist. The experiments were terminated by lysing cells with 0.1% (v/v) Triton X-100 in the Mg^2+-free HBS to record the total bioluminescence. The bioluminescence rates (counts/s) were analyzed at 1-s intervals and calibrated as [Ca^2+]i values using the following equation:1 p[Ca^2+]i=0.332588(−log(k))+5.5593 where k represents the rate of aequorin consumption, i.e., counts/s divided by the total number of counts.
(§2) To determine the IC50 values for NS8593 and VER155008 (EC50 for naltriben), the data were fitted with the following logistic equation:2 Ec=Emin+Emax+Emin/1+c^h/IC50^h where E(c) is the functional effect at the concentration c of the compound, Emin is the minimal effect, Emax is the maximal effect, IC50 (EC50) is the concentration of the compound that produces the half-maximal effect, and h is the Hill coefficient. Fitting of dose-response curves was performed using GraphPad Prism 8.4.0. Data are presented as the mean ± SEM.

TRPM7-A981L = target: T2, TRPM7-A981L (Mus musculus, UniProt Q923J1, A981L); assay: as above; format: cell-based; conditions: antagonist, mean ± SEM
T2 construct: expressed in transfected cells; host or cells: HEK 293T
Procedure: as §1, §2

TRPM7-A981V = target: T3, TRPM7-A981V (Mus musculus, UniProt Q923J1, A981V); assay: as above; format: cell-based; conditions: antagonist, mean ± SEM
T3 construct: expressed in transfected cells; host or cells: HEK 293T
Procedure: as §1, §2

TRPM7-M991A = target: T4, TRPM7-M991A (Mus musculus, UniProt Q923J1, M991A); assay: as above; format: cell-based; conditions: for sensitivity of the mutant to the inhibitor: TRPM7-M991A
T4 construct: expressed in transfected cells; host or cells: HEK 293T
Procedure: as §1, §2

TRPM7-N1098Q = target: T5, TRPM7-N1098Q (Mus musculus, UniProt Q923J1, N1098Q); assay: as above; format: cell-based; conditions: N1098Q, antagonist, mean ± SEM
T5 construct: expressed in transfected cells; host or cells: HEK 293T
Procedure: as §1, §2

TRPM7-W1111A = target: T6, TRPM7-W1111A (Mus musculus, UniProt Q923J1, W1111A); assay: as above; format: cell-based; conditions: antagonist, mean ± SEM
T6 construct: expressed in transfected cells; host or cells: HEK 293T
Procedure: as §1, §2

wild-type TRPM7 = target: T7, wild-type TRPM7 (Mus musculus, UniProt Q923J1); assay: Whole-cell patch-clamp recordings in HEK 293T cells; format: cell-based; conditions: 10 µM inhibitor, 450-s exposure, amplitude at +80 mV
T7 construct: expressed in transfected cells; host or cells: HEK 293T
Procedure: Patch-clamp experiments were performed as reported previously, with a few modifications[69],[70]. HEK 293T cells grown in 35-mm dishes to ~60% confluence were transiently transfected with Trpm7 cDNAs in the pIRES2-EGFP vector (2 µg/dish). Patch-clamp experiments were conducted 18–22 h after transfection with cells displaying EGFP fluorescence. Whole-cell currents were recorded using an EPC10 patch-clamp amplifier and PatchMaster software (Version V2x69, Harvard Bioscience). Voltages were corrected for a liquid junction potential of 10 mV. Currents were elicited by voltage ramps from –100 mV to +100 mV over 50 ms acquired at 0.5 Hz. The inward and outward current amplitudes were measured at –80 mV and +80 mV and were normalized to the cell size as pA/pF. The capacitance was measured using the automated capacitance cancellation function of EPC10. The standard extracellular solution contained 140 mM NaCl, 2.8 mM KCl, 1 mM CaCl2, 2 mM MgCl2, 10 mM HEPES-NaOH, and 11 mM glucose (all from Sigma-Aldrich). Solutions were adjusted to pH 7.2 using an FE20 pH meter (Mettler Toledo) and to 290 mOsm using a Vapro 5520 osmometer (Wescor Inc). […] For the experiment with naltriben, the intracellular solution contained 120 mM Cs-glutamate, 8 mM NaCl, 10 mM Cs-EGTA, 1.5 mM MgCl2, and 10 mM HEPES-CsOH. The intracellular solution was also adjusted to pH 7.2 and 290 mOsm. Data are presented as the mean ± SEM Unless indicated otherwise, data were compared by unpaired t-test (GraphPad Prism 8.4.0). For multiple comparisons, ordinary one-way ANOVA (GraphPad Prism 8.4.0) was used. Significance was accepted at P ≤ 0.05.

[1] = target: the molecule itself; assay: cryo-EM structure; single-particle cryo-EM of purified TRPM7 in GDN or in MSP2N2 lipid nanodiscs (POPC:POPE:POPG), 150 mM NaCl, 20 mM Tris pH 8.0; apo or with naltriben, VER155008 or NS8593; final refinement with C4 symmetry

T4 sequence (Q923J1 whole entry M991A): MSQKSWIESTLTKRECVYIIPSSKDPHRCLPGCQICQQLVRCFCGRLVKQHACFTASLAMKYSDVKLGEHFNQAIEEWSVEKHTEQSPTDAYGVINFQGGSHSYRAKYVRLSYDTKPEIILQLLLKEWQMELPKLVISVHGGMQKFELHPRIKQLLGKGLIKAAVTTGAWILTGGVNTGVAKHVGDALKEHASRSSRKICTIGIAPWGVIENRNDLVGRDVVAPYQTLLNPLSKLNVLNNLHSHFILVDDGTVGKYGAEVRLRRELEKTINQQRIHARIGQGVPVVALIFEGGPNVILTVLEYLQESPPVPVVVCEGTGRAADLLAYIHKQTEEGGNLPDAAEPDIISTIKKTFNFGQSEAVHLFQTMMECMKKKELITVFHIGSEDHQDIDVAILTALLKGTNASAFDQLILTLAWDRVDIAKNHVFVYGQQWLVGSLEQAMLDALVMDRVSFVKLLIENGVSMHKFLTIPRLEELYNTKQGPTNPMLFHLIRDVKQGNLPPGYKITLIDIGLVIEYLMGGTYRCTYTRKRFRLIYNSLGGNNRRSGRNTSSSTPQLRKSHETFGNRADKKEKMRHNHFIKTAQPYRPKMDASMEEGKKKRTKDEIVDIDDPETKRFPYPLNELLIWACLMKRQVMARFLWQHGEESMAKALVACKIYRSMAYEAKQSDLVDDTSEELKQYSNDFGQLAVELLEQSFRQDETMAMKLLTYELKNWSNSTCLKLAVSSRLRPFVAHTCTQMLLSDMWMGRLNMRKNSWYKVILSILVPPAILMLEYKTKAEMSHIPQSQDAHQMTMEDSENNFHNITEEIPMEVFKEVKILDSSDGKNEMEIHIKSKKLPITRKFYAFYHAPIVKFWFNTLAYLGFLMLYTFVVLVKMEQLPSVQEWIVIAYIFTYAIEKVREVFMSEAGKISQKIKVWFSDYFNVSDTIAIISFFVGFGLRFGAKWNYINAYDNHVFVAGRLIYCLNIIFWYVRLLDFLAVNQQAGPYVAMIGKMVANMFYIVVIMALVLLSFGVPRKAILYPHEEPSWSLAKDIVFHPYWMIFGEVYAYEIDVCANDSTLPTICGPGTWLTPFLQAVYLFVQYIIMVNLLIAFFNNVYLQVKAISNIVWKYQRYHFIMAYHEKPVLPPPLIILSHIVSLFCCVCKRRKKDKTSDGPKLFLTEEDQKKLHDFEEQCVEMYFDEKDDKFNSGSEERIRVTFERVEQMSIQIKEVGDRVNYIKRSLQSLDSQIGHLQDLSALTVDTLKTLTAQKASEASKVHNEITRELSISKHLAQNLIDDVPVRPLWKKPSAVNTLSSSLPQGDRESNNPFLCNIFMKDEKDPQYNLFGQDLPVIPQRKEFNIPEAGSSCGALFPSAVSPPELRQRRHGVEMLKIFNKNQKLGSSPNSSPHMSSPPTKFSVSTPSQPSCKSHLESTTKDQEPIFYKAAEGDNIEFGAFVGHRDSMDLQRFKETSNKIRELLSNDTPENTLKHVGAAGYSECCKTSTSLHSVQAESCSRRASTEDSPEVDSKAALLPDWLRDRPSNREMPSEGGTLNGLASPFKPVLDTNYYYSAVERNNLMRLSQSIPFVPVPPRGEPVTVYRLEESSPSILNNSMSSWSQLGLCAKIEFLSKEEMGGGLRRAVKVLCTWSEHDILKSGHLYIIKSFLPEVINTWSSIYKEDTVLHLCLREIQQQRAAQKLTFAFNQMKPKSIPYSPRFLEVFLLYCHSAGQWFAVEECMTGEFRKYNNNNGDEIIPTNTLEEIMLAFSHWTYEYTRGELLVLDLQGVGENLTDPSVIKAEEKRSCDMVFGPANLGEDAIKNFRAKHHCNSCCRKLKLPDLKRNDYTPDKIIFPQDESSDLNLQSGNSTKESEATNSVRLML
T5 sequence (Q923J1 whole entry N1098Q): as the sequence (Q923J1 whole entry M991A) above, with A991M, N1098Q counted along it
T1 sequence (Q923J1 whole entry): as the sequence (Q923J1 whole entry M991A) above, with A991M counted along it
T2 sequence (Q923J1 whole entry A981L): as the sequence (Q923J1 whole entry M991A) above, with A981L, A991M counted along it
T7 sequence (Q923J1 whole entry): as the sequence (Q923J1 whole entry M991A) above, with A991M counted along it
T6 sequence (Q923J1 whole entry W1111A): as the sequence (Q923J1 whole entry M991A) above, with A991M, W1111A counted along it
T3 sequence (Q923J1 whole entry A981V): as the sequence (Q923J1 whole entry M991A) above, with A981V, A991M counted along it

For `N#Cc1ccc(COC[C@H]2O[C@@H](n3c(NCc4ccc(Cl)c(Cl)c4)nc4c(N)ncnc43)[C@H](O)[C@@H]2O)cc1` [VER155008], the Hill coefficient (TRPM7 WT) was “–2.07 ± 0.41”, the IC50 (TRPM7 WT) was 0.23 ± 0.03 µM and the IC50 (TRPM7-A981L) was ~25 µM. For the same molecule, the IC50 (TRPM7-A981V) was “not feasible to calculate the IC50 value”, the IC50 (TRPM7-M991A; M991A, antagonist, no added second inhibitor, mean ± SEM) was “not feasible to calculate the IC50 value” and the “sensitivity of the mutant to the inhibitor” value (TRPM7-M991A; 0.1-10 μM VER155008 (response to reviewers)) was “no sensitivity”. The “sensitivity of the mutant to the inhibitor” value (TRPM7-M991A; 1–10 µM VER) was “not sensitive”, the Hill coefficient (TRPM7-N1098Q) was “–1.32 ± 0.20” and the IC50 (TRPM7-N1098Q) was 1.71 ± 0.25 µM. The IC50 (TRPM7-W1111A) was ~10 µM and the “amplitude of TRPM7-mediated currents in the presence of inhibitor” value (wild-type TRPM7) was “greatly reduced”.

B1: C-terminally truncated mouse TRPM7 (residues 1–1280), wild type (natural protein, UniProt Q923J1 1-1280, looked up)
chain: MSQKSWIESTLTKRECVYIIPSSKDPHRCLPGCQICQQLVRCFCGRLVKQHACFTASLAMKYSDVKLGEHFNQAIEEWSVEKHTEQSPTDAYGVINFQGGSHSYRAKYVRLSYDTKPEIILQLLLKEWQMELPKLVISVHGGMQKFELHPRIKQLLGKGLIKAAVTTGAWILTGGVNTGVAKHVGDALKEHASRSSRKICTIGIAPWGVIENRNDLVGRDVVAPYQTLLNPLSKLNVLNNLHSHFILVDDGTVGKYGAEVRLRRELEKTINQQRIHARIGQGVPVVALIFEGGPNVILTVLEYLQESPPVPVVVCEGTGRAADLLAYIHKQTEEGGNLPDAAEPDIISTIKKTFNFGQSEAVHLFQTMMECMKKKELITVFHIGSEDHQDIDVAILTALLKGTNASAFDQLILTLAWDRVDIAKNHVFVYGQQWLVGSLEQAMLDALVMDRVSFVKLLIENGVSMHKFLTIPRLEELYNTKQGPTNPMLFHLIRDVKQGNLPPGYKITLIDIGLVIEYLMGGTYRCTYTRKRFRLIYNSLGGNNRRSGRNTSSSTPQLRKSHETFGNRADKKEKMRHNHFIKTAQPYRPKMDASMEEGKKKRTKDEIVDIDDPETKRFPYPLNELLIWACLMKRQVMARFLWQHGEESMAKALVACKIYRSMAYEAKQSDLVDDTSEELKQYSNDFGQLAVELLEQSFRQDETMAMKLLTYELKNWSNSTCLKLAVSSRLRPFVAHTCTQMLLSDMWMGRLNMRKNSWYKVILSILVPPAILMLEYKTKAEMSHIPQSQDAHQMTMEDSENNFHNITEEIPMEVFKEVKILDSSDGKNEMEIHIKSKKLPITRKFYAFYHAPIVKFWFNTLAYLGFLMLYTFVVLVKMEQLPSVQEWIVIAYIFTYAIEKVREVFMSEAGKISQKIKVWFSDYFNVSDTIAIISFFVGFGLRFGAKWNYINAYDNHVFVAGRLIYCLNIIFWYVRLLDFLAVNQQAGPYVMMIGKMVANMFYIVVIMALVLLSFGVPRKAILYPHEEPSWSLAKDIVFHPYWMIFGEVYAYEIDVCANDSTLPTICGPGTWLTPFLQAVYLFVQYIIMVNLLIAFFNNVYLQVKAISNIVWKYQRYHFIMAYHEKPVLPPPLIILSHIVSLFCCVCKRRKKDKTSDGPKLFLTEEDQKKLHDFEEQCVEMYFDEKDDKFNSGSEERIRVTFERVEQMSIQIKEVGDRVNYIKRSLQSLDSQIGHLQDLSALTVDTLKTLTAQKASEASKVHNEITRELSISKHLAQNLID
notes: mouse TRPM7 (Trpm7 cDNA NM_021450), truncated C-terminally, protein residues 1–1280; lacks the kinase domain; A thrombin cleavage site (LVPRG) stands between GFP and TRPM7; the purification as described has no thrombin step; also called TRPM7_(Closed); TRPM7_(NTB-open); source: HEK 293S GnTI- cells, baculovirus-transduced (pEG-BacMam), purified (strep resin, SEC); in GDN or reconstituted in …
With B1 the “stoichiometry N” value [1] was 4.

B2: C-terminally truncated mouse TRPM7 (residues 1–1280) with the gain-of-function mutation N1098Q (natural protein, UniProt Q923J1 1-1280, looked up)
chain: B1 chain with N1098Q
notes: mouse TRPM7 (Trpm7 cDNA NM_021450), truncated C-terminally, protein residues 1–1280, with N1098Q; Same construct as m1 with the point mutation; a thrombin cleavage site (LVPRG) stands between GFP and TRPM7, no thrombin step is described; also called TRPM7-N1098Q; TRPM7-N1098Q_(open); source: HEK 293S GnTI- cells, baculovirus-transduced (pEG-BacMam), purified (strep resin, SEC); in GDN
B2: binds [1].
